The record followed here is US20070032533A1, “Nitric oxide enhancing angiotensin II antagonist compounds, compositions and methods of use” (NitroMed, Inc., priority 2005, published 2007).

Data set [1] deals with T1, Human angiotensin II type 1 receptor (Homo sapiens, UniProt P30556).
T1 construct: Cerep, Seattle, Wash; (contract laboratory that ran the assay)
T1 sequence (P30556 1-359): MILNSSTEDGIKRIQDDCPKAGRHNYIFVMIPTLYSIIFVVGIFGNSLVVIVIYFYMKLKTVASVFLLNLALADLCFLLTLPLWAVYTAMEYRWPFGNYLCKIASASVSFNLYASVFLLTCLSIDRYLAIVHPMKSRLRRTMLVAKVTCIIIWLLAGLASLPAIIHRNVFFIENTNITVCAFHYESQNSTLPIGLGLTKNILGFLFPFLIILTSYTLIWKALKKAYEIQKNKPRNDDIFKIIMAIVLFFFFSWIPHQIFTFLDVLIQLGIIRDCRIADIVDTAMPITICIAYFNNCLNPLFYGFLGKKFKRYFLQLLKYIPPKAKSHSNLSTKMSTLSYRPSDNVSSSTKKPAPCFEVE
Nature of the data set: Human angiotensin II type 1 receptor binding assay. The settings on record: for AT1 Binding Human % Inhibition at 100 nM / inhibition at 0.1 µM: percent inhibition of control specific binding at 100 nM test compound; for inhibition at 0.1 µM: read-out: AT1 Binding Human % Inhibition at 100 nM. On the procedure: Human Angiotensin II Type 1 Receptor Binding Assay
The Human angiotensin II type 1 receptor binding assay was performed by Cerep, Seattle, Wash., using the procedure described in Bergsma et al; Biochem. Biophys. Res. Commun., 183: 989-995 (1992).

Structures can show the parent of a compound that is named as a salt.

As a reminder, the melting point is the temperature, or range, at which the solid turns liquid. The inhibition is the change of the read-out against control, counted positive when it falls. The term IC50 denotes the midpoint of a concentration-inhibition curve. Read a high IC50 as weaker potency in that assay.

For the molecule `CCc1nc2c(C)cc(C)nc2n1Cc1ccc(-c2ccccc2S(=O)(=O)NC(=O)C2=CC(C)(C)N([O])C2(C)C)cc1` [Example 12, 1H-Pyrrol-1-yloxy, 3-[[[[4′-[(2-ethyl-5,7-dimethyl-3H-imidazo[4,5-b]pyridin-3-yl)methyl][1,1′-biphenyl]-2-yl]sulfonyl]amino]carbonyl]-2,5-dihydro-2,2,5,5-tetramethyl], the “AT1 Binding Human % Inhibition at 100 nM” value in data set [1] is recorded as 78%.
In the case of `CCCCC(=O)N(Cc1ccc(-c2ccccc2-c2nnn[nH]2)cc1)[C@H](C(=O)N1CCC(CO[N+](=O)[O-])CC1)C(C)C` [Example 10, Pentanamide, N-[(1S)-2-methyl-1-[[4-[(nitrooxy)methyl]-1-piperidinyl]carbonyl]propyl]-N-[[2′-(1H-tetrazol-5-yl) [1,1′-biphenyl]-4-yl]methyl]], the melting point is 86 to 88 °C. Moreover, in data set [1], the inhibition at 0.1 µM is 22%.
On to `CC(C)[C@@H](C(=O)O)N(Cc1ccc(-c2ccccc2-c2nnn[nH]2)cc1)C(=O)c1cccc(CO[N+](=O)[O-])c1` [Example 3b, L-valine, N-[3-[(nitrooxy)methyl]benzoyl]-N-[[2′-(1H-tetrazol-5-yl)[1,1′-biphenyl]-4-yl]methyl]], for which the melting point was 151 °C (dec.). Also, the inhibition at 0.1 µM in data set [1] turned out to be 5%.
In turn, `CCCCC(=O)N(Cc1ccc(-c2ccccc2-c2nnn[nH]2)cc1)[C@H](C(=O)N(C)CCO[N+](=O)[O-])C(C)C` [Example 9] came in with a melting point of 86 to 89 °C. Also, the inhibition at 0.1 µM in data set [1] was found to be 8%.
Regarding `CCc1nc2c(C)cc(C)nc2n1Cc1ccc(-c2ccccc2S(=O)(=O)NC(=O)c2cccc(CO[N+](=O)[O-])c2)cc1` [Example 13, Benzamide, N-[[4′-[(2-ethyl-5,7-dimethyl-3H-imidazo[4,5-b]pyridin-3-yl)methyl][1,1′-biphenyl]-2-yl]sulfonyl]-3-[(nitrooxy)methyl]], the melting point was 123 °C (dec.). Moreover, in data set [1], the inhibition at 0.1 µM stood at 73%.
In the case of `CC(C)[C@@H](C(=O)O)N(Cc1ccc(-c2ccccc2-c2nnn[nH]2)cc1)C(=O)CCCCCO[N+](=O)[O-]` [Example 2g, L-valine, N-[6-(nitrooxy)-1-oxohexyl]-N-[[2′-(1H-tetrazol-5-yl)[1,1′-biphenyl]-4-yl]methyl]], the melting point was 196 °C (dec.).
On to `CCc1nc2c(C)cc(C)nc2n1Cc1ccc(-c2ccccc2S(=O)(=O)NC(=O)c2ccccc2)cc1` [MK 996, reference compound], for which, in data set [1], the “AT1 Binding Human % Inhibition at 100 nM” value came to 91%.
For the molecule `CC(C)[C@@H](C(=O)O)N(Cc1ccc(-c2ccccc2-c2nnn[nH]2)cc1)C(=O)CCC(CO[N+](=O)[O-])O[N+](=O)[O-]` (stereo partly drawn) [Example 4b, L-valine, N-[4,5-bis(nitrooxy)-1-oxopentyl]-N-[[2′-(1H-tetrazol-5-yl)[1,1′-biphenyl]-4-yl]methyl]], the melting point was 182 °C (dec.). Also, the inhibition at 0.1 µM in data set [1] was 2%.
`CC(C)[C@@H](C(=O)O)N(Cc1ccc(-c2ccccc2-c2nnn[nH]2)cc1)C(=O)CCCCO[N+](=O)[O-]` [Example 1g, L-valine, N-[5-(nitrooxy)-1-oxopentyl]-N-[[2′-(1H-tetrazol-5-yl)[1,1′-biphenyl]-4-yl]methyl]] returned a melting point of 108 to 111 °C. In data set [1] (human AT1 receptor binding, performed by Cerep), this molecule returned a 50% inhibitory concentration (IC50) of 18 nM. Further, the inhibition at 0.1 µM in data set [1] was 86%.
`CCCCC(=O)N(Cc1ccc(-c2ccccc2-c2nnn[nH]2)cc1)[C@H](C(=O)N(CCO[N+](=O)[O-])CCO[N+](=O)[O-])C(C)C` [Example 8]: the melting point lay within 87 to 90 °C. Further, in data set [1], the inhibition at 0.1 µM was 4%.
`CCOc1nc2cccc(CO[N+](=O)[O-])c2n1Cc1ccc(-c2ccccc2-c2nnn[nH]2)cc1` (as salt: nitrate) [Example 14e, 1H-benzimidazole-7-methanol, 2-ethoxy-1-[[2′-(1H-tetrazol-5-yl)[1,1′-biphenyl]-4-yl]methyl]-, nitrate (ester)]: the melting point is 126 °C (dec.).
`CCCCC(=O)N(CCCO[N+](=O)[O-])Cc1ccc(-c2ccccc2-c2nnn[nH]2)cc1` [Example 7d, Pentanamide, N-[3-(nitrooxy)propyl]-N-[[2′-(1H-tetrazol-5-yl)[1,1′-biphenyl]-4-yl]methyl]] came in with a melting point of 54 to 59 °C. The inhibition at 0.1 µM in data set [1] amounted to 21%.
In the same order, the values of `CC(C)[C@@H](C(=O)O)N(Cc1ccc(-c2ccccc2-c2nnn[nH]2)cc1)C(=O)CCCC(CO[N+](=O)[O-])O[N+](=O)[O-]` (stereo partly drawn) [Example 5b, L-valine, N-[5,6-bis(nitrooxy)-1-oxohexyl]-N-[[2′-(1H-tetrazol-5-yl)[1,1′-biphenyl]-4-yl]methyl]] are 192 °C (dec.) and -1%.
`CCCCC(=O)N(Cc1ccc(-c2ccccc2-c2nnn[nH]2)cc1)[C@H](C(=O)O)C(C)C` [Valsartan, reference compound]: the inhibition at 0.1 µM in data set [1] was found to be 94%.
Turning to `CCc1nc2c(C)cc(C)nc2n1Cc1ccc(-c2ccccc2S(=O)(=O)NC(=O)C2CC(C)(C)N([O])C(C)(C)C2)cc1` [Example 11, 1-Piperidinyloxy, 4-[[[[4′-[(2-ethyl-5,7-dimethyl-3H-imidazo[4,5-b]pyridin-3-yl)methyl][1,1′-biphenyl]-2-yl]sulfonyl]amino]carbonyl]-2,2,6,6-tetramethyl], the “AT1 Binding Human % Inhibition at 100 nM” value in data set [1] is recorded as 88%.
Consider `CC(C)[C@@H](C(=O)OC(C)(C)C)N(Cc1ccc(-c2ccccc2-c2nnn(C(c3ccccc3)(c3ccccc3)c3ccccc3)n2)cc1)C(=O)CCCCCO[N+](=O)[O-]` [Example 2f, L-valine, N-[6-(nitrooxy)-1-oxohexyl]-N-[[2′-[2-(triphenylmethyl)-2H-tetrazol-5-yl][1,1′-biphenyl]-4-yl]methyl]-, 1,1-dimethylethyl ester], for which, in data set [1], the inhibition at 0.1 µM stood at 12%.
For `CC(C)[C@@H](C(=O)N(C)C)N(Cc1ccc(-c2ccccc2-c2nnn[nH]2)cc1)C(=O)CCCCO[N+](=O)[O-]` [Example 6, Pentanamide, N-[(1S)-1-[(dimethylamino)carbonyl]-2-methylpropyl]-5 (nitrooxy)-N-[[2′-(1H-tetrazol-5-yl)[1,1′-biphenyl]-4-yl]methyl]], the melting point lay within 75 to 78 °C. In data set [1], the inhibition at 0.1 µM was found to be 83%.
